Test [1] addresses T1, h-Sortilin (Homo sapiens, UniProt Q99523).
T1 sequence (Q99523 78-831): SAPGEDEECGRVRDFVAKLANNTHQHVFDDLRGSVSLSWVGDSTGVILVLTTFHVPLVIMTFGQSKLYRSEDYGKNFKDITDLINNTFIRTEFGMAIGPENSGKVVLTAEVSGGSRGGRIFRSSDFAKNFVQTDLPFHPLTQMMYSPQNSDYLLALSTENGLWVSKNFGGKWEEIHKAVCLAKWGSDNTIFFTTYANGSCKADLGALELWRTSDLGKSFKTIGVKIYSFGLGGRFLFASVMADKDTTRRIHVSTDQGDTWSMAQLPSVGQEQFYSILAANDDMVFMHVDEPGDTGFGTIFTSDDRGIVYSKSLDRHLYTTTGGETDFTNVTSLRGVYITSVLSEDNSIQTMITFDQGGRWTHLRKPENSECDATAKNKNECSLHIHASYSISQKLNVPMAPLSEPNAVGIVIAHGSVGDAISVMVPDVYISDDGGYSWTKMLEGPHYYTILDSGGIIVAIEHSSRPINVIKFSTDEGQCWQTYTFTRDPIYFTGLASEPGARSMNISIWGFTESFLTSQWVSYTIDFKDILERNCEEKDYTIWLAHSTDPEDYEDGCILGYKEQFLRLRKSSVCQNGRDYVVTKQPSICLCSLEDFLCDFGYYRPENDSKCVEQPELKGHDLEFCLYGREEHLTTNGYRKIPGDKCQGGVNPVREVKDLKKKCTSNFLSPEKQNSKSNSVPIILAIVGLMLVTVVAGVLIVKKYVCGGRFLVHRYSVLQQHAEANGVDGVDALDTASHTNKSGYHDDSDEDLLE
Put plainly: Neurotensin scintillation proximity assay (SPA). Type of test: binding. As to conditions: displacement of 5 nM [3H]-Neurotensin, 150 nM 6his-Sortilin; average of at least 2 determinations. Here is the method: NTS, which is a 13 amino acid neuropeptide, is a sortilin ligand. […] Compound affinity was determined by measuring the displacement of [^3H]-neurotensin binding to h-Sortilin in SPA format. Total volume of 40 µl in 50 mM HEPES pH 7.4 assay buffer containing 100 mM NaCl, 2.0 mM CaCl2, 0.1 % BSA and 0.1 % Tween-20. Compound pre-incubation for 30 minutes at room temperature with 150 nM of 6his-Sortilin before 5 nM [3H]-Neurotensin and Ni chelate imaging beads (Perkin Elmer) were added, after 6 hours the plate was read on a ViewLux with 360 s exposure time. Dose-response evaluation of compounds was performed with 8 concentrations of drugs (covering 3 decades). IC50 values were calculated by nonlinear regression using the sigmoid concentration-response (variable slope) using CDD Vault software. All values reported are average of at least 2 determinations.
A general note: SPA uses beads or plates that emit light when radiolabelled molecules are held near them.

Test [2] has as its target T2, Human (6-His)Sortilin (Homo sapiens, UniProt Q99523).
T2 construct: purchased RnD Systems
T2 sequence (Q99523 78-831): T1 sequence (Q99523 78-831)
Put plainly: Human Sortilin GCI (Grating-Coupled Interferometry) binding assay. As to conditions: immobilised Human (6-His)Sortilin, Creoptix WAVE-RAPID, single concentration, 1:1 kinetic model; read-out: h-Sortilin GCI KD.

The target in test [3] is T3, Sortilin receptor at the cell surface (Homo sapiens, UniProt Q99523).
T3 construct: expressed in transfected cells; host or cells: HEK293
T3 sequence (Q99523 78-831): T1 sequence (Q99523 78-831)
Put plainly: Progranulin cell surface engagement assay. In kind it is cell-based. As to conditions: displacement of 100 nM PGRN-AF647, HEK293 engineered to express sortilin, on ice; average of at least 2 determinations. Here is the method: PGRN is a sortilin ligand.
Compound affinity was determined by measuring the ability of compounds to displace the binding of Progranulin-Alexa Fluor 647 (PGRN-AF647) binding to the Sortilin receptor at the cell surface. HEK293 engineered to express sortilin were pre-incubated with compound for 30 minutes on ice in 20 µl assay buffer containing 1% BSA in PBS. Dose-response evaluation of compounds was performed with 10 concentrations of drugs (10 point half log curve). PGRN-AF647 was added at 100 nM concentration in 20 µl assay buffer for 2 hours on ice. Data was acquired using iQue flow cytometer (IntelliCyt). IC50 values were calculated by nonlinear regression using the sigmoid concentration-response (variable slope) using CDD Vault software. All values reported are average of at least 2 determinations.

Counter-ions that a name gives are not always drawn.

One may read the IC50 as the concentration that inhibits the measured activity by half. A lower IC50 goes with higher potency. Broadly, the Kd is the constant that tells how readily two partners part at equilibrium.

Take `CC(C)(C)CCC(C)(NCc1ccccc1)C(=O)O` (racemic) [Example 1, rac-2-benzylamino-2,5,5-trimethylhexanoic acid]: the IC50 in test [1] is 2500 nM. For the same compound, the Kd in test [2] was 621 nM.

Regarding `COc1cccc(CNC(C)(CCC(C)(C)C)C(=O)O)c1` (racemic) [Example 4, 2-((3-methoxybenzyl)amino)-2,5,5-trimethylhexanoic acid hydrochloride], the IC50 in test [1] amounted to 4020 nM.

Turning to `COc1cccc(CNC(C)(CCC(C)C)C(=O)O)c1` (racemic) [Example 7, 2-{[(m-methoxyphenyl)methyl]amino}-2,5-dimethylhexanoic acid], the Kd in test [2] was found to be 1270 nM.

For the compound `CC(C)(C)CCC(C)(NCc1cncnc1)C(=O)O` (racemic) [Example 8, 2,5,5-trimethyl-2-{[(5-pyrimidinyl)methyl]amino}hexanoic acid], in test [1], the IC50 came to 840 nM. Also, the Kd in test [2] came to 4220 nM.

For `CC(C)(C)CCC(C)(NCCCc1ccccc1)C(=O)O` (racemic) [Example 9, 2,5,5-trimethyl-2-(3-phenylpropylamino)hexanoic acid], the IC50 in test [1] turned out to be 9740 nM.

Take `CC(C)(C)CC[C@](C)(NCc1cncnc1)C(=O)O` (single isomer, unassigned) [Example 10]: the results for the IC50 in test [1] and in test [3] were 383 nM and 680 nM, respectively. Further, in test [2], the Kd is 804 nM.

On to `CC(C)(C)CC[C@](C)(NCc1ccccc1)C(=O)O` [Example 2, (S)-2-benzylamino-2,5,5-trimethylhexanoic acid], for which the IC50 in test [1] is 2970 nM. For the same compound, the Kd in test [2] turned out to be 393 nM.

As to `CC(C)(C)CC[C@@](C)(NCc1ccccc1)C(=O)O` [Example 3, (R)-2-benzylamino-2,5,5-trimethylhexanoic acid], the Kd in test [2] was found to be 21400 nM.

In test [1], `COc1cccc(CN[C@@](C)(CCC(C)(C)C)C(=O)O)c1` [Example 5, (S)-2-((3-methoxybenzyl)amino)-2,5,5-trimethylhexanoic acid hydrochloride] yielded an IC50 of 1330 nM. This lies in the single-digit micromolar range.

Consider `CC(C)(C)CCC(C)(NCc1cncnc1)C(=O)O` (stereo not drawn) [Example 11], for which the dissociation constant Kd in test [2] was 73500 nM.

These data come from patent EP4428124A1, “MODULATORS OF SORTILIN ACTIVITY” (Vesper Bio Aps, priority 2023, dated 2024).
